Assay [1] concerns Spontaneously Hypertensive Rats (SHR). The assay is described as follows: Experiment 1: antihypertensive effect of Dendrobium officinale extraction methods, tail artery blood pressure. The format is in vivo, rat. As to the method: Rats: Spontaneously Hypertensive Rats (SHR), Wistar rats are used as normal controls.
(§1) Rat Blood Pressure Measurement: BP-98A Non-invasive Tail Artery Blood Pressure Meter, Japan Soft Rotation Co., Ltd.
Group therapy is described in the following description. Blood pressure and body weight are measured and grouped after one week of adaptive feeding in all rats. The SHR rats are divided into the water extracting group after crushing and flattening, the water extracting group after crushing, and the water extracting group after grinding into powder, all Chinese medicine groups are given 0.8 g/kg body weight of crude drug, and the amlodipine besylate tablets 0.5 mg/kg body weight are given intragastrically in amlodipine group, the hypertensive model control group is given with the same amount of saline, while the normal control group is given with the same amount of saline. Eight rats in each group were treated for 2 weeks. Blood pressure measurement: The rats are preheated at 38° C. for 5-10 minutes to avoid blood flow in the tail of the rat. The blood pressure of the rats is measured three times in a waking and quiet state, and the average value of the three measurement times is used as the blood pressure of the rats. Blood pressure is measured once a week and once 2 hours after administration.

For assay [2] the test system is unchanged. The assay is described as follows: Experiment 4: antihypertensive effect of the sample of Example 1 on SHR. The format is in vivo, rat. As to the method:
Rats: Spontaneously Hypertensive Rats (SHR), Wistar rats were used as normal controls.
as §1
Group therapy is described in the following description. Blood pressure and body weight are measured and grouped after one week of adaptive feeding in all rats. […] Eight rats in each group are treated for 2 weeks.
The following description describes the blood pressure measurement. The rats are preheated at 38° C. for 5-10 minutes to avoid blood flow in the tail of the rat. The blood pressure of the rats is measured three times in a waking and quiet state, and the average value of three times is used as the blood pressure of the rats. Blood pressure is measured twice a week, once 2 hours after administration and once 24 hours after administration, to observe the immediate antihypertensive effect and after 24 hours antihypertensive effect (and the peak-to-valley ratio).
The following description discusses the trough-peak ratio calculation of depressurization amplitude. The difference of blood pressure before treatment minus 24 hours after administration is the trough of the range of blood pressure reduction, which is the lowest point before the next administration; the difference of blood pressure before treatment and 2 hours after administration is the peak value of blood pressure reduction, that is, the maximum point of blood pressure reduction after administration. Valley value of depressurization amplitude divided by peak value of depressurization amplitude is equal to valley-peak ratio of depressurization amplitude.

The mark [3] stands for this setting: 2 h after administration, treatment for 1 week, 0.8 g/kg crude drug, amlodipine 0.5 mg/kg.
The mark [4] stands for this setting: 2 h after administration, treatment for 2 weeks, 0.8 g/kg crude drug, amlodipine 0.5 mg/kg.
Setting [5] is: 2 h after administration, treatment for 2 weeks, 0.8 g/kg crude drug, amlodipine 0.5 mg/kg, listed as amlodipine.
[6] abbreviates: 2 h after administration, treatment for 1 week, medium dose 0.8 g/kg crude drug, amlodipine 0.5 mg/kg.
Setting [7] is: 2 h after administration, treatment for 2 weeks, medium dose 0.8 g/kg crude drug, amlodipine 0.5 mg/kg.
Setting [8] is: 24 h after administration, treatment for 1 week, medium dose 0.8 g/kg crude drug, amlodipine 0.5 mg/kg.
Setting [9] is: 24 h after administration, treatment for 2 weeks, medium dose 0.8 g/kg crude drug, amlodipine 0.5 mg/kg.
[10] abbreviates: before treatment, medium dose group 0.8 g/kg crude drug, amlodipine group 0.5 mg/kg.
Where [11] appears, read: treatment for 1 week, medium dose 0.8 g/kg crude drug, amlodipine 0.5 mg/kg.
Setting [12] is: treatment for 2 weeks, medium dose 0.8 g/kg crude drug, amlodipine 0.5 mg/kg.

This is an account of results in patent publication US11369654B2, “Application method of Dendrobium candidum in preparing medicine for treating hypertension” (Hangzhou Danhe Pharmaceutical CO., Ltd., priority 2017, dated 2022).

Each structure is given as a SMILES string. Where “and” joins values, the source holds several entries; their conditions need not be identical. Equal values may be shown once.

In the case of `CCOC(=O)C1=C(COCCN)NC(C)=C(C(=O)OC)C1c1ccccc1Cl` (stereo not drawn) [Amlodipine, amlodipine besylate], the diastolic blood pressure in assay [1] (setting [3]) worked out at 142.6 ± 5.78 mmHg; in assay [1] (setting [4]), 143.7 ± 4.28 mmHg; in assay [1] (setting [5]), 143.7±4.28 mmHg; in assay [1] (before treatment), 157.4 ± 5.67 mmHg; in assay [2] (setting [6]), 145.9 mmHg; in assay [2] (setting [7]), 144.8 mmHg. Moreover, the diastolic blood pressure in assay [2] (setting [8]) came out at 156.5 mmHg; in assay [2] (setting [9]), 157.3 mmHg; in assay [2] (setting [10]), 158.2 mmHg. Moreover, the systolic blood pressure in assay [1] (setting [3]) came out at 173.8 ± 5.26 mmHg; in assay [1] (setting [4]), 175.5 ± 4.48 mmHg; in assay [1] (setting [5]), 175.5±4.48 mmHg; in assay [1] (before treatment) it was 206.3 ± 6.26 mmHg; in assay [2] (setting [6]), 176.7 ± 7.42 mmHg; in assay [2] (setting [7]), 178.7 ± 5.64 mmHg. The systolic blood pressure is 202.6 mmHg in assay [2] (setting [8]); 204.9 mmHg in assay [2] (setting [9]); 211.7 ± 7.57 mmHg and 211.7 mmHg and 211.7 ± 17.57 mmHg in assay [2] (setting [10]). In addition, the results for the “2-hour hypotensive amplitude (peak of systolic blood pressure reduction)” value in assay [2] (setting [11]) and in assay [2] (setting [12]) were 35.0 mmHg and 33.0 mmHg, respectively. The “24-hour hypotensive amplitude (trough of systolic blood pressure reduction)” value in assay [2] (setting [11]) came out at 9.1 mmHg; in assay [2] (setting [12]), 6.8 mmHg. Also, the “valley-peak ratio of Systolic Blood Pressure Reduction” value is recorded as 0.26 in assay [2] (setting [11]) and 0.21 in assay [2] (setting [12]).
